{"source": "patent US12312308B2", "about": "“Salts and esters of APX3330 and therapeutic uses thereof” (Opus Genetics, Inc., priority 2022, dated 2025)", "assay": "Dynamic vapor sorption (DVS) analysis", "assay_type": "physicochemical", "note": "Counter-ions that a name gives are not always drawn.", "data": [{"smiles": "CCCCCCCCC/C(=C\\C1=C(C)C(=O)C(OC)=C(OC)C1=O)C(=O)O", "note": "[Compound 1 calcium salt]", "values": [{"measurement": "maximum water adsorption", "setting": "DVS, at 82% RH", "value": "about 1.52%"}, {"measurement": "water retained at the end of the desorption branch", "setting": "DVS, end of desorption branch", "value": 0.19, "unit": "%"}, {"measurement": "crystalline form after DVS (subsequent XRPD analysis)", "setting": "post-DVS sample vs pre-DVS sample, XRPD", "value": "maintained the same crystalline form"}]}]}
